These are literature values, as cited in patent US20250241850A1, “BIOADHESIVE NASAL SPRAY COMPOSITION, PREPARATION METHOD AND USE” (Eurofarma Laboratórios S.A., priority 2022, published 2025).

Counter-ions that a name gives are not always drawn.

For the data set the following is noted: in vivo.

In the case of `CN1C2CCCC1CC(NC(=O)c1nn(C)c3ccccc13)C2` (stereo not shown) [Granisetron hydrochloride], the half-life is 3 to 4 h.
